Laboratory results published in patent US12252524B2, “GIP/GLP1 co-agonist compounds” (Eli Lilly and Company, priority 2018, dated 2025).
Numbered stars: 1 amine (or outer) side, 2 acyl side, 3 side chain; on linkers, the order of the positions; unused ones are H or OH. Square brackets hold non-standard residues; d marks the D form. Side chains are listed from the residue outwards. Peptide text beside a SMILES is read from it. * marks the point of attachment. C20 diacid = O=C(O)CCCCCCCCCCCCCCCCCCC(=O)*; γGlu = O=C(O)[C@H](CCC(=O)[*:2])N[*:1]; AEEA = NCCOCCOCC(=O)O; Aib = CC(C)(N)C(=O)O

Columns and labels:
[1] = target: T1, human Gcg receptor (Homo sapiens, UniProt P47871); assay: [125I]-Glucagon binding (SPA), human Gcg receptor; settings: read-out: hGLcgR Ki, nM (SEM, n)
T1 construct: expressed in transfected cells; crude membranes
In short: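 Crude membranes from cells expressing the receptor, prepared by hypotonic lysis in 50 mM Tris HCl pH 7.5 with protease inhibitors, homogenization and differential centrifugation, were used in a WGA-bead SPA. Binding buffer: 25 mM HEPES pH 7.4, 2.5 mM CaCl2, 1 mM MgCl2, bacitracin, Tween-20.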

[2] = target: human GLP-1R (Homo sapiens, UniProt P43220); assay: [125I]-GLP-1 binding (SPA), human GLP-1 receptor; set-up: expressed in transfected cells; crude membranes; settings: read-out: hGLP1R Ki, (nM) (SEM, n)
In short: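 Ki values are geometric means with SEM over independent replicates on different days, derived from IC50s fitted by four-parameter nonlinear regression. The assay used crude cell membranes in HEPES buffer, pH 7.4, containing CaCl2, MgCl2, bacitracin and TWEEN-20.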

[3] = target: T2, gastric inhibitory peptide receptor (GIPR) (Homo sapiens, UniProt P48546); assay: cAMP pharmacological functional assay in presence of casein, hGIPR; type: cell-based; settings: HEK293 cells expressing hGIPR, 0.1% Casein, geometric mean; read-out: hGIPR cAMP Rel EC50 nM (SEM, n)
T2 sequence (P48546 22-466): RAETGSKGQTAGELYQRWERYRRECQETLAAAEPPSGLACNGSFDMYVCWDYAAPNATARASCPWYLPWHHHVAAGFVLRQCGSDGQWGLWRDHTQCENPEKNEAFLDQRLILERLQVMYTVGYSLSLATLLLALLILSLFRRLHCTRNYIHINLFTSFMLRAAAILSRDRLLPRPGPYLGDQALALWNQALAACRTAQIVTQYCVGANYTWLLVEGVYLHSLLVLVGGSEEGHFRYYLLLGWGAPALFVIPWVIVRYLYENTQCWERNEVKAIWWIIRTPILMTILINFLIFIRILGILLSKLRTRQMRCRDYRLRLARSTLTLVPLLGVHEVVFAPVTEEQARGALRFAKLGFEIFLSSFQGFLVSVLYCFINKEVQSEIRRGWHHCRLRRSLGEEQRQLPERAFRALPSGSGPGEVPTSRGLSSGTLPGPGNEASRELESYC

[4] = target: human GLP-1 receptor (GLP-1R) (Homo sapiens, UniProt P43220); assay: cAMP pharmacological functional assay in presence of casein, hGLP-1R; type: cell-based; settings: HEK293 cells expressing hGLP-1R, 0.1% Casein, geometric mean; read-out: hGLP1R cAMP Rel EC50 nM (SEM, n)
[5] = target: T3, human GIP receptor (Homo sapiens, UniProt P48546); assay: [125I]-GIP binding (SPA), human GIP receptor; settings: read-out: hGIPR Ki, nM (SEM, n)
T3 construct: expressed in transfected cells; crude membranes
T3 sequence (P48546 22-466): T2 sequence (P48546 22-466)

T1 sequence (P47871 26-477): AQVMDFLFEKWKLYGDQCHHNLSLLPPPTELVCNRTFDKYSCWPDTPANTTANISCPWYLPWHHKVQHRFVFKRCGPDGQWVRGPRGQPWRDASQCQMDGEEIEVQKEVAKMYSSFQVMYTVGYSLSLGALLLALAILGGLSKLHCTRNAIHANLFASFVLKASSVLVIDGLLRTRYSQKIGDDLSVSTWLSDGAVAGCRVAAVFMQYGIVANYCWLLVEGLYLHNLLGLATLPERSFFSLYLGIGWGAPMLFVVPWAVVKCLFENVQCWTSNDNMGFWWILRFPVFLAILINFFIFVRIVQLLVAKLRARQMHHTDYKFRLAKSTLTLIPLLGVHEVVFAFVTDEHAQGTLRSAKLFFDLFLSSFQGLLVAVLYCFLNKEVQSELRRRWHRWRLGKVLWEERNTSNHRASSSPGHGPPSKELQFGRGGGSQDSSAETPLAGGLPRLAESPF
Sequence of human GLP-1R (P43220 24-463): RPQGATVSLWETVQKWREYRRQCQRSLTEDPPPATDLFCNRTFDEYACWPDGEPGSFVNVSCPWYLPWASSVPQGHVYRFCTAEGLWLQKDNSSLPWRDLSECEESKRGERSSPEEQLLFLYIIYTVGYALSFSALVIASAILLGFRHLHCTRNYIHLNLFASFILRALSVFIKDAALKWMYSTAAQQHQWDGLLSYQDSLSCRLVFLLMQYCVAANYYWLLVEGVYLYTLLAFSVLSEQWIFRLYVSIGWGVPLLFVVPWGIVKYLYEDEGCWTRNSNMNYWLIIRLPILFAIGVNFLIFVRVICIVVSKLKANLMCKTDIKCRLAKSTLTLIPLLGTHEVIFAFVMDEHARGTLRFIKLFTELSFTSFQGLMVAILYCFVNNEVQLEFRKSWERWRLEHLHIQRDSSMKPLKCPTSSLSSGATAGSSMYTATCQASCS
Sequence of human GLP-1 receptor (GLP-1R) (P43220 24-463): as above

Compound | Ki [1] | Ki [2] | EC50 [3] | EC50 [4] | Ki [5]
CC[C@H](C)[C@H](NC(=O)[C@H](CCCCN)NC(=O)[C@H](CC(=O)O)NC(=O)[C@H](CC(C)C)NC(=O)[C@H](CC(C)C)NC(=O)[C@@H](NC(=O)[C@H](CO)NC(=O)[C@H](CCCCNC(=O)COCCOCCNC(=O)COCCOCCNC(=O)CC[C@H](NC(=O)CCCCCCCCCCCCCCCCCCC(=O)O)C(=O)O)NC(=O)[C@H](CC(=O)O)NC(=O)[C@H](CO)NC(=O)[C@@H](NC(=O)[C@H](Cc1ccccc1)NC(=O)[C@@H](NC(=O)CNC(=O)[C@H](CCC(=O)O)NC(=O)C(C)(C)NC(=O)[C@@H](N)Cc1ccc(O)cc1)[C@@H](C)O)[C@@H](C)O)[C@@H](C)CC)C(=O)N[C@@H](C)C(=O)N[C@@H](CCC(N)=O)C(=O)NC(C)(C)C(=O)N[C@@H](C)C(=O)N[C@@H](Cc1ccccc1)C(=O)N[C@H](C(=O)N[C@@H](CCC(=O)O)C(=O)N[C@@H](Cc1ccc(O)cc1)C(=O)N[C@@H](CC(C)C)C(=O)N[C@H](C(=O)N[C@@H](CCC(=O)O)C(=O)NCC(=O)NCC(=O)N1CCC[C@H]1C(=O)N[C@@H](CO)C(=O)N[C@@H](CO)C(=O)NCC(=O)N[C@@H](C)C(=O)N1CCC[C@H]1C(=O)N1CCC[C@H]1C(=O)N1CCC[C@H]1C(=O)N[C@@H](CO)C(N)=O)[C@@H](C)CC)[C@@H](C)CC [Example 23] (H-Y[Aib]EGTFTSDK([AEEA-AEEA-γGlu-C20 diacid])SILLDKIAQ[Aib]AFIEYLIEGGPSSGAPPPS-NH2) | > 1010 nM | 6.32 nM | 0.204 nM | 0.19 nM | 0.258 nM
CC[C@H](C)[C@H](NC(=O)[C@H](CCCCN)NC(=O)[C@H](CC(=O)O)NC(=O)[C@H](CC(C)C)NC(=O)[C@H](CC(C)C)NC(=O)[C@@H](NC(=O)[C@H](CO)NC(=O)[C@H](Cc1ccc(O)cc1)NC(=O)[C@H](CC(=O)O)NC(=O)[C@H](CO)NC(=O)[C@@H](NC(=O)[C@H](Cc1ccccc1)NC(=O)[C@@H](NC(=O)CNC(=O)[C@H](CCC(=O)O)NC(=O)C(C)(C)NC(=O)[C@@H](N)Cc1ccc(O)cc1)[C@@H](C)O)[C@@H](C)O)[C@@H](C)CC)C(=O)N[C@@H](C)C(=O)N[C@@H](CCC(N)=O)C(=O)NC(C)(C)C(=O)N[C@@H](C)C(=O)N[C@@H](Cc1ccccc1)C(=O)N[C@H](C(=O)N[C@@H](CCC(=O)O)C(=O)N[C@@H](Cc1ccc(O)cc1)C(=O)N[C@@H](CC(C)C)C(=O)N[C@H](C(=O)N[C@@H](CCC(=O)O)C(=O)NCC(=O)NCC(=O)N[C@@H](CCCCNC(=O)COCCOCCNC(=O)COCCOCCNC(=O)CC[C@H](NC(=O)CCCCCCCCCCCCCCCCCCC(=O)O)C(=O)O)C(=O)N[C@@H](CO)C(=O)N[C@@H](CO)C(=O)NCC(=O)N[C@@H](C)C(=O)N1CCC[C@H]1C(=O)N1CCC[C@H]1C(=O)N1CCC[C@H]1C(=O)N[C@@H](CO)C(N)=O)[C@@H](C)CC)[C@@H](C)CC [Example 40] (H-Y[Aib]EGTFTSDYSILLDKIAQ[Aib]AFIEYLIEGGK([AEEA-AEEA-γGlu-C20 diacid])SSGAPPPS-NH2) | 150 nM | 7.56 nM | 0.136 nM | 0.746 nM | 0.0345 nM
